Data as given in patent US20130072385A1, “METHODS FOR DELAYING BUD BREAK BY APPLYING ABA ANALOGS” (priority 2011, published 2013).

Key:
[1] = system: Cabernet Franc grapevines; experiment: Fall foliar spray of Cabernet Franc grapevines, fruit maturity the following fall (juice pH and Brix); assay type: in vivo; conditions: for Brix of juice / pH of juice: 300 ppm in 0.1% Brij 98, fall foliar application, grapes harvested on Oct. 24, 2009; for Effect on maturation of the following crop of grapes (juice pH and Brix): foliar application at about 0.125 grams per vine in the fall
Protocol: (§1) A study was conducted to determine the effect of spraying grapevines with ABA analogs in the fail on bud break the following spring. Mature Cabernet Franc grapevines growing in a research vineyard in Benton Harbor, Mich. were sprayed to drip with surfactant alone or surfactant and ABA analog on Oct. 25, 2008. Vines were sprayed with approximately 300 ml (113 grams ABA analog/acre) applied to each of 9 vines per treatment arranged in three replicates of three vines each. The following spring prior to bud break the vines were pruned to 3-6 buds per spur and bud break of 40 buds per vine (4 buds on each of 10 spurs) was rated periodically using the BBCH (Biologische Bundesanstalt, Bundessortenamt und Chemische Industrie) scale of development where a rating of 1 represents the first sign of bud swelling and 99 represents a defoliated plant re-entering dormancy at the end of the growing season.
When the control fruit had reached maturity three clusters of grapes were randomly harvested from each 3 vine replicate. Brix and pH measurements were made of the juice expressed by hand squeezing the grape clusters. Both the pH and Brix readings were lower for the grapes from the ABA analog treated vines indicating a delay of fruit maturity.

[2] = system: Cabernet Franc grapevines; experiment: Fall foliar spray of mature Cabernet Franc grapevines, bud break the following spring (BBCH rating); assay type: in vivo; parameters: key to Average BBCH rating of bud developmental stages: BBCH scale: 1 = first bud swelling, 99 = defoliated, re-entering dormancy; conditions: for Average BBCH rating of bud developmental stages: 300 ppm in 0.1% Brij 98, fall foliar application; for Delay of bud break the following spring / Impact on bud mortality: foliar application at about 0.125 grams per vine in the fall
Protocol: as §1

[3] = system: Cabernet Franc grapevines; experiment: Fall foliar spray of Cabernet Franc grapevines with PBI-425 or PBI-524, broken buds the following spring; assay type: in vivo; conditions: for Average number of broken buds per vine: Apr. 11, 2012; for Effect on bud break the following spring / Impact on bud mortality: foliar application at about 0.03-0.3 grams per vine in the fall
Protocol: A study was conducted to determine the elect of spraying Cabernet Franc grapevines with ABA analog PBI-425 or PBI-524 in the fall on bud break the following spring. Mature Cabernet Franc grapevines growing in a research vineyard in Benton Harbor, Mich. were sprayed to drip with surfactant alone or surfactant and ABA analog on Oct. 21, 2011. Vines were sprayed with approximately 300 ml applied to each of 9 vines per treatment arranged in three replicates of three vines each. Applied at about 100 gallons per acre 100 ppm treatment represents 37.8 grams per acre and 1000 ppm represents 378.4 grams per acre. In the spring after treatment prior to bud break the vines were pruned to 3-6 buds per spur and bud break of the entire vine was determined in the spring.

Concord grape vines = experiment: Spring spray of eco-dormant field grown Concord grape vines, bud break; assay type: in vivo, Concord grapevines; conditions: 100 ppm PBI-429 plus 0.5% Brij 98, sprayed 2 times in spring
Protocol: A study was conducted to evaluate the effect of spraying eco-dormant Concord grape vines with ABA or ABA analog plus surfactants on bud break. Mature field grown Concord grape vines were sprayed to runoff 2 times in the spring after pruning and before bud swell. Three replicates of 3 vines each were treated with each treatment solution. Treatments were arranged in a randomized complete block design down a single vineyard row, Bud break was monitored by counting the number of broken buds of the distal 5 buds on 4 proximal canes on the middle vine of each 3 vine replicate. Bud break was only very slightly delayed by any of the treatments compared to the water sprayed control (Table 1).

Concord grapevines [4] = experiment: Repeated spray of potted Concord grapevines during the bud break period; assay type: in vivo; conditions: for Average number of broken buds per vine: 100 ppm in 0.05% Silwet L77, repeated spray
Protocol: A study was conducted to determine the effect of spraying Concord grapevines with ABA or ABA analog PBI-429 during bud break. Potted concord grapevines were placed in greenhouse conditions to promote bud break and the vines were repeatedly sprayed with ABA or ABA analog solutions. The vines were sprayed 2, 4, 8, 12 and 14 days after exposure of the vines into bud break promoting temperatures. Bud break was rated 6, 7, 8, 11, 12, 13, 14, 15, 19 and 20 days after vines were placed in warm bud break promoting conditions.

PF-11 nectarine trees [5] = experiment: Fall foliar spray of PF-11 nectarine trees, bud break the following spring; assay type: in vivo
Protocol: (§2) A study was conducted to determine the effect of spraying nectarine trees with ABA or ABA analogs in the fall on bud break the following spring. Mature PF-11 nectarine trees were sprayed to drip with surfactant alone or surfactant and ABA or ABA analog on Oct. 19, 2009. Trees were sprayed with approximately 500 ml (20.5 grams ABA analog/acre) applied to each of 6 trees per treatment arranged in a randomized complete block design. The following spring bud break on pre-selected branches was monitored.

Concord grapevines [6] = experiment: Fall soil drench of potted Concord grapevines, bud break the following spring; assay type: in vivo; parameters: key to Average rating of bud break (1-6 scale): 1 = no growth to 6 = three or more leaves showing; conditions: for Average rating of bud break (1-6 scale): 100 ppm (100 mg/pot) fall soil drench
Protocol: A study was conducted to determine the effect of application of ABA or ABA analog as a soil drench in the fall on bud break of potted Concord grapevines the following spring. Two year old eco-dormant Concord grapevines were obtained from a Concord Nurseries in the spring. Bare-root vines were planted in 14 liter pots filled with Promix BX (available from Premier Horticulture Inc. Quakertown, Pa.) and grown outside for about 5 months (May October) prior to treatment. Plants received irrigation as needed and fertilized weekly (1 g/L all purpose fertilizer 20-20-20, The Scotts Company, Marysville, Ohio). Uniform plants were selected for the study. A total of 1000 mL of water or chemical solution was applied to the soil of each plant.
After chemical treatment, the ten replicate plants per treatment were arranged in a randomized complete block experimental design. The potted vines were surrounded by bark chips the depth of the soil in the pot to insulate the roots and prevent cold damage. The plants became dormant for the winter. In the following spring the vines were pruned to 5 buds per vine before bud break and bud break was monitored over time (Table 4). The buds were rated for bud break periodically on a scale from 1 for no growth to 6 for three or more leaves showing
Potted Concord grapevines were treated with 1000 mL water, solution containing 1000 mg ABA or solution containing 100 mg PBI-429. The dose of RBI-429 was used at one-tenth of ABA dose based on the preliminary results.

PF-11 nectarine trees [7] = experiment: Fall foliar spray of PF-11 nectarine trees, fruit number per tree the following spring; assay type: in vivo
Protocol: as §2

[8] = 100 ppm in 0.1% Silwet Brij 98, fall foliar application

## C#CC1(C)CC(=O)C=C(C)C1(O)C=CC(C)=CC(=O)O (racemic) [PBI-524]
[1]
  Brix of juice: 19.37
  pH of juice: 3.14
  Effect on maturation of the following crop of grapes (juice pH and Brix): delayed maturation
[2]; May 1, 2009
  Average BBCH rating of bud developmental stages: 0.0
[2]; May 5
  Average BBCH rating of bud developmental stages: 0.4
[2]; May 12
  Average BBCH rating of bud developmental stages: 1.0
[2]; May 21
  Average BBCH rating of bud developmental stages: 3.7
[2]; May 28
  Average BBCH rating of bud developmental stages: 6.7
[2]
  Delay of bud break the following spring: about 15 days
  Impact on bud mortality: without apparent impact on bud mortality
[3]; [8]
  Average number of broken buds per vine: 13
[3]; 1000 ppm in 0.1% Silwet Brij 98, fall foliar application
  Average number of broken buds per vine: 2
[3]
  Effect on bud break the following spring: delayed bud break
  Impact on bud mortality: without apparent impact on bud mortality

## C#CC1(C)CC(=O)C=C(C)C1(O)C=CC(C)=CC(=O)O (centres unmarked) [PBI-425]
[3]; [8]
  Average number of broken buds per vine: 11
[3]
  Effect on bud break the following spring: delayed bud break
  Impact on bud mortality: without apparent impact on bud mortality

## C#CC1(C)CC(=O)C=C(C)C1(O)/C=C/C(C)=C\C(=O)OC (centres unmarked) [PBI-429, 8′acetylene-ABA methyl ester]
Concord grape vines; April 24
  Average percent broken buds: 8%
Concord grape vines; April 30
  Average percent broken buds: 18%
Concord grapevines [4]; 6 days after warming
  Average number of broken buds per vine: 0.7
Concord grapevines [4]; 7 days after warming
  Average number of broken buds per vine: 0.7
Concord grapevines [4]; 8 days after warming
  Average number of broken buds per vine: 1.7
Concord grapevines [4]; 11 days after warming
  Average number of broken buds per vine: 2.5
Concord grapevines [4]; 12 days after warming
  Average number of broken buds per vine: 2.5
Concord grapevines [4]; 13 days after warming
  Average number of broken buds per vine: 3.0
Concord grapevines [4]; 14 days after warming
  Average number of broken buds per vine: 3.0
Concord grapevines [4]; 15 days after warming
  Average number of broken buds per vine: 4.0
Concord grapevines [4]; 19 days after warming
  Average number of broken buds per vine: 4.3
Concord grapevines [4]; 20 days after warming
  Average number of broken buds per vine: 4.3
Concord grapevines [4]; repeated spray application during the bud break period
  Effect on average number of broken buds over time: not significantly impacted
PF-11 nectarine trees [5]; 100 ppm PBI-429 versus 10,000 ppm ABA, fall foliar application
  Potency relative to ABA in delaying bud break: about 100 times
PF-11 nectarine trees [5]; 100 ppm in 0.1% Brij 98, fall foliar application, April 8
  Percentage of broken floral buds: 56 Percentage
[1]
  Brix of juice: 19.32
  pH of juice: 3.16
  Effect on maturation of the following crop of grapes (juice pH and Brix): delayed maturation
[2]; May 1, 2009
  Average BBCH rating of bud developmental stages: 0.1
[2]; May 5
  Average BBCH rating of bud developmental stages: 0.4
[2]; May 12
  Average BBCH rating of bud developmental stages: 1.0
[2]; May 21
  Average BBCH rating of bud developmental stages: 3.2
[2]; May 28
  Average BBCH rating of bud developmental stages: 6.0
[2]
  Delay of bud break the following spring: about 15 days
  Impact on bud mortality: without apparent impact on bud mortality
Concord grapevines [6]; 100 mg fall soil drench
  Delay of bud break compared to ABA treated or untreated vines: about 2 weeks
Concord grapevines [6]; Apr. 23, 2008
  Average rating of bud break (1-6 scale): 1.0
Concord grapevines [6]; April 28
  Average rating of bud break (1-6 scale): 1.0
Concord grapevines [6]; April 30
  Average rating of bud break (1-6 scale): 1.0
Concord grapevines [6]; May 2
  Average rating of bud break (1-6 scale): 1.0
Concord grapevines [6]; May 5
  Average rating of bud break (1-6 scale): 1.0
Concord grapevines [6]; May 7
  Average rating of bud break (1-6 scale): 1.0
Concord grapevines [6]; May 9
  Average rating of bud break (1-6 scale): 1.0
Concord grapevines [6]; May 12
  Average rating of bud break (1-6 scale): 1.0
Concord grapevines [6]; May 14
  Average rating of bud break (1-6 scale): 1.0
Concord grapevines [6]; May 16
  Average rating of bud break (1-6 scale): 1.0
Concord grapevines [6]; May 19
  Average rating of bud break (1-6 scale): 1.2
Concord grapevines [6]; May 21
  Average rating of bud break (1-6 scale): 1.2
Concord grapevines [6]; May 23
  Average rating of bud break (1-6 scale): 1.8
Concord grapevines [6]; May 28
  Average rating of bud break (1-6 scale): 2.7
PF-11 nectarine trees [7]; 100 ppm in 0.1% Brij 98, fall foliar application, June 10
  Average number of fruit per tree: 75
PF-11 nectarine trees [7]; fall foliar application
  Effect on number of fruit per tree the following spring: reduced the number of fruit per tree
